Assay results taken from ChEMBL document CHEMBL1201862, “PubChem BioAssay data set” (2004).
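Growth conditions: 96-well plates. Treatment: test compound, 48 hours, 5 concentrations. Analysis: linear interpolation between bracketing concentrations; unreached endpoints set to highest concentration. The concentration for 50% growth inhibition is given as GI50.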 Activity calls are given as the source filed them. Rule as the data show it: active = GI50 up to about 1.1 µM and inactive = higher.

How the values were obtained:
Assay in all cases: NCI anticancer screen, dose series, 48 h
[1] = system: RPMI-8226
[2] = system: Malme-3M
[3] = system: MOLT-4
[4] = system: SR
[5] = system: A498
[6] = system: HCT-116
[7] = system: MDA-N
[8] = system: NCI/ADR-RES
[9] = system: Hs-578T
[10] = system: EKVX
[11] = system: PC-3
[12] = system: NCI-H23
[13] = system: SK-OV-3
[14] = system: UACC-62
[15] = system: HT-29
[16] = system: SF-268
[17] = system: SK-MEL-5
[18] = system: UACC-257
[19] = system: TK-10
[20] = system: KM12

Structure (SMILES)	GI50 [1]	GI50 [2]	GI50 [3]	GI50 [4]	GI50 [5]	GI50 [6]	GI50 [7]	GI50 [8]	GI50 [9]	GI50 [10]	GI50 [11]	GI50 [12]	GI50 [13]	GI50 [14]	GI50 [15]	GI50 [16]	GI50 [17]	GI50 [18]	GI50 [19]	GI50 [20]
COC[C@H]1C(=O)NCC(=O)N2N=CCC[C@H]2C(=O)N(O)[C@H](C)C(=O)O[C@@H](C(C)C)[C@H](NC(=O)[C@@](C)(O)[C@]2(O)CC[C@@H](CC(C)C)[C@H](C)O2)C(=O)N2NCCC[C@@H]2C(=O)N1O	0.0208 µM (active)	0.0171 µM (active)	0.0164 µM (active)	0.014 µM (active)	0.0412 µM (active)	0.0134 µM (active)	0.018 µM (active)	0.316 µM (active)	0.0179 µM (active)	0.0292 µM (active)	0.0175 µM (active)	0.0163 µM (active)	0.0273 µM (active)	0.0176 µM (active)	0.0172 µM (active)	0.0163 µM (active)	0.0156 µM (active)	0.0184 µM (active)	0.0218 µM (active)	0.0134 µM (active)
COC(=O)[C@@]12C(=O)C(C)C(=O)[C@]1(C)C(C)=C[C@H]1[C@]3(C=O)CC[C@H](OC(C)=O)C(C)(C)[C@H]3CC[C@@]12C (stereo not given in full)	75.2 µM (inactive)	> 100 µM (inactive)	11.9 µM (inactive)	7.48 µM (inactive)	> 100 µM (inactive)	> 100 µM (inactive)	> 100 µM (inactive)	> 100 µM (inactive)	> 100 µM (inactive)	> 100 µM (inactive)	> 100 µM (inactive)	> 100 µM (inactive)	> 100 µM (inactive)	> 100 µM (inactive)	> 100 µM (inactive)	> 100 µM (inactive)	> 100 µM (inactive)	> 100 µM (inactive)	> 100 µM (inactive)	> 100 µM (inactive)
C/C=C/C(CC(O)(C(F)(F)F)C(F)(F)F)=N/NC(N)=S	> 10 µM (inactive)	> 10 µM (inactive)	> 10 µM (inactive)	> 10 µM (inactive)	> 10 µM (inactive)	> 10 µM (inactive)	> 10 µM (inactive)	> 10 µM (inactive)	> 10 µM (inactive)	> 10 µM (inactive)	> 10 µM (inactive)	> 10 µM (inactive)	> 10 µM (inactive)	> 10 µM (inactive)	> 10 µM (inactive)	> 10 µM (inactive)	> 10 µM (inactive)	> 10 µM (inactive)	> 10 µM (inactive)	> 10 µM (inactive)
